Read-outs that look alike come from different tables or passages of the source.

The target of one assay is T1, AdipoR1 (Homo sapiens, UniProt Q96A54).
T1 construct: The cDNAs encoding full-length of AdipoR1 or AdipoR2 were then sub-cloned into the mammalian expression vector pBEX and pcDNA3.1–Myc-His(+); His (C); Myc (C); made in house; host or cells: CHO cells
T1 sequence (Q96A54 1-375): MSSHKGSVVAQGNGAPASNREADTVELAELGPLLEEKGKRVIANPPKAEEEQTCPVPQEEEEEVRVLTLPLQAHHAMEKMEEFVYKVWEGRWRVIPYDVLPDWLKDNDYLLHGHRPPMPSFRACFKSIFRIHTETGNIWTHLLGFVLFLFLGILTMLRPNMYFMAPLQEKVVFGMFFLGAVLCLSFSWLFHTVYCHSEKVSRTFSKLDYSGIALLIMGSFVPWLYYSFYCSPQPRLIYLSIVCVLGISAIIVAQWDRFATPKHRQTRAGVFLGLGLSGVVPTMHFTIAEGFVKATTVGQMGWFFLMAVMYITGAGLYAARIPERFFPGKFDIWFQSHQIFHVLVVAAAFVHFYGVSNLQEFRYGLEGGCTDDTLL
As to the kind of experiment: Competitive FP assay, displacement of probe 1 from AdipoR1. In kind it is binding. The note with it: 2 µM receptor, 100 nM probe 1, 30 min, 25°C. On the procedure:
Unlabeled short peptide 3 was titrated against the FITC-labeled peptide and adiponectin receptor mixture. Plates were incubated at room temperature for up to 3 hours or 30 min at different temperatures. FP values were taken and IC50 values were calculated.
Master mixtures containing fluorescein-labeled probe 1 and adiponectin receptor (AdipoR1 or AdiopR2, 2 µM and probe 1 at 100 nM) in a reaction volume of 19 µl were prepared and loaded to plates. The library compounds (10 µM –0.078 µM, half dilutions) were prepared separately and transferred into the assay plates. The first and last columns of each plate were used as positive and negative control wells. Wells containing the drug only were used as controls to detect auto-fluorescence of the compounds in the total fluorescence assay. After subtraction of the background signal, data was processed and the IC50 values were determined by non-linear least square fitting using SigmaPlot 11.0.
Given that the present study is a screening study, peptide 3 was chosen as the positive control for cost-efficiency purposes.
To optimize the FP assay properly, it was necessary to assess the stability of the FP assay. The conditions for the FP assay were established by testing various parameters including incubation temperature, time, TF values, ΔmP values, and DMSO tolerance. […] In summary, the competitive FP binding assay conditions ideal for identifying adiponectin receptor agonists are: i) 2 µM adiponectin receptor, ii) 100 nM probe 1, iii) 5% final DMSO concentration (v/v), and iv) incubation for 30 min at 25°C before reading the plate.
A pilot screen against the natural product library of 10,000 compounds described above was performed at screening concentrations of 10 µM to 0.078 µM (half serial dilutions) in 5% DMSO (v/v). Controls present in each assay plate consisted of 5% DMSO (negative control) or peptide 3 (positive control).
We screened a library of 10,000 natural compounds for adiponectin agonists. […] 46 compounds that could generate IC50 curves were identified as initial hits.

The test system of another assay is MCF-7 cells. As to the kind of experiment: Cell viability assay (CellTiter-Blue) in MCF-7 cells. In kind it is cell-based. The note with it: Homo sapiens, MCF7; 72 h, 20 µM to 1.2 nM; read-out: IC50 (µM) MCF-7 cells, cell viability. The procedure: All cell lines were obtained from the American Type Culture Collection (ATCC). MCF-7 and MDA-MB-231 cells were maintained in DMEM containing 10% fetal bovine serum and supplied with 1% penicillin/streptomycin. All cells were maintained in a 5% CO2 atmosphere at 37°C.
The effects of the lead compounds on cell proliferation were tested in MCF-7 and MDA-MB-231 cells. Cells were grown to 80% confluence, harvested and aliquoted into 384-well plates in a total volume of 45 µl per well. The outer wells were inoculated with sterile water to minimize evaporation from the sample wells. Cells were allowed to attach overnight and 5 µl culture media containing either vehicles or drug were added. Cell proliferation was evaluated using CellTilter-Blue reagent (Promega, China) according to manufacturer’s instructions after 72-h incubation. Fluorescence was measured with an excitation at 530 nm and emission at 590 nm. After background subtraction, cell viability values were normalized to vehicle controls and expressed as percentage of the mean of the relative vehicle controls.
To further confirm the agonistic activity of hit compounds, MDA-MB-231 and MCF-7 cells were treated with different concentrations of g-Ad or drug (20 µM to 1.2 nM) for 72 hours and cell viability was measured. Thus, four compounds (arctiin, (-)-arctigenin, matairesinol and gramine) that show agonistic activity against adiponectin receptor 1 and four compounds (deoxyschizandrin, taxifoliol, syringing and parthenolide) that show agonistic activity against adiponectin receptor 2 were identified.

The mark [1] stands for this setting: primary screen, read-out: IC50 vs AdipoR1 (µM) Primary screen.
[2] abbreviates: validation, read-out: IC50 vs AdipoR1 (µM) Validated.

Turning to `C=C1C(=O)O[C@H]2[C@H]1CC/C(C)=C/CC[C@@]1(C)O[C@@H]21` [Compound 7, Parthenolide], the values for the IC50 on AdipoR1 (setting [1]), on AdipoR1 (setting [2]) and in the assay on MCF-7 cells were > 5 µM, > 5 µM and 2.5 ± 0.4 µM, respectively.

As for `COc1cc(C[C@H]2COC(=O)[C@@H]2Cc2ccc(O)c(OC)c2)ccc1O` [Compound 3, Matairesinol], the IC50 (in general, the point on the concentration scale where inhibition reaches its midpoint) at AdipoR1 (setting [1]) is 0.9 µM; at AdipoR1 (setting [2]), 0.8 ± 0.2 µM; in the assay on MCF-7 cells, > 10 µM.

Turning to `COc1cc2c(c(OC)c1OC)-c1c(cc(OC)c(OC)c1OC)C[C@H](C)[C@H](C)C2` [Compound 4, Deoxyschizandrin], the IC50 was > 5 µM on AdipoR1 (setting [1]), > 5 µM at AdipoR1 (setting [2]) and 5.5 ± 0.6 µM with MCF-7 cells.

On to `CN(C)Cc1c[nH]c2ccccc12` [Compound 9, Gramine], for which the figures for the IC50 on AdipoR1 (setting [1]), on AdipoR1 (setting [2]) and with MCF-7 cells were 4.5 µM, 4.2 ± 0.5 µM and 0.1 ± 0.1 µM, respectively.

For `COc1ccc(C[C@H]2COC(=O)[C@@H]2Cc2ccc(O[C@@H]3O[C@H](CO)[C@@H](O)[C@H](O)[C@H]3O)c(OC)c2)cc1OC` [Compound 1, Arctiin], the IC50 is 1.2 µM at AdipoR1 (setting [1]), 1.3 ± 0.2 µM on AdipoR1 (setting [2]) and > 10 µM with MCF-7 cells.

(Values after paper PMC3653934, “Identification of Adiponectin Receptor Agonist Utilizing a Fluorescence Polarization Based High Throughput Assay” (PLoS ONE, 2013).)
